Values joined by “and” are separate entries in the source; they are usually repeats but may differ in a detail not shown here. Equal values may be shown once.
Test system: Modified Vaccinia Virus, strain Ankara (MVA)
Format: cell-based
Conditions: reference inactivation (LVP-Method)

C=O [0.7% (w/v) formaldehyde solution, formaldehyde]
Reduction factor [lg] ± 95.0% confidence interval, 5 min: 1.70 lg and 1.87 lg and 1.53 lg | Reduction factor [lg] ± 95.0% confidence interval, 15 min: 3.14 lg and 2.96 lg and 2.73 lg | lg-TCID50/ml after 5 min: 4.93 lg-TCID50/ml and 4.88 lg-TCID50/ml and 4.85 lg-TCID50/ml | lg-TCID50/ml after 15 min: 3.49 lg-TCID50/ml and 3.79 lg-TCID50/ml and 3.65 lg-TCID50/ml
